Here are results for three compounds from US11266622B2, “Method of treatment” (Vanda Pharmaceuticals Inc., priority 2014, dated 2022).

Series [1] deals with Mel1a (MT1R) (Homo sapiens, UniProt P48039). Put plainly: Affinity (Ki) for melatonin receptor MT1R. Type of series: binding.
The target of series [2] is T1, Mel1b (MT2R) (Homo sapiens, UniProt P49286).
T1 sequence (P49286 1-362): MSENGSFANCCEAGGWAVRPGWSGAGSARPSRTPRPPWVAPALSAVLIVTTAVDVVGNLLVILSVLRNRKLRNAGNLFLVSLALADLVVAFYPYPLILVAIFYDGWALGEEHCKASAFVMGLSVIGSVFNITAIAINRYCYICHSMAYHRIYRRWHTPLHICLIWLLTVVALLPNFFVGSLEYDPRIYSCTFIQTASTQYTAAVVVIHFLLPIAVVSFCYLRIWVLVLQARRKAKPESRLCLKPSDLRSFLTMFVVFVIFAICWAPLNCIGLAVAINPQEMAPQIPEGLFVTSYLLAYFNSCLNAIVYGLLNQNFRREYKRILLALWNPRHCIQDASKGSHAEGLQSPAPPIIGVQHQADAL
Put plainly: Affinity (Ki) for melatonin receptor MT2R. In kind it is binding.

Series [3] can be described thus: Solubility of tasimelteon in solvents and water. In kind it is physicochemical.
The test system of series [4] is sleep parameters. The following applies: cited from earlier work.
Series [5] in a line: Metabolite formation following oral administration of tasimelteon. Type of series: in vivo. To be noted: humans.

Sequence of Mel1a (MT1R) (P48039 whole entry): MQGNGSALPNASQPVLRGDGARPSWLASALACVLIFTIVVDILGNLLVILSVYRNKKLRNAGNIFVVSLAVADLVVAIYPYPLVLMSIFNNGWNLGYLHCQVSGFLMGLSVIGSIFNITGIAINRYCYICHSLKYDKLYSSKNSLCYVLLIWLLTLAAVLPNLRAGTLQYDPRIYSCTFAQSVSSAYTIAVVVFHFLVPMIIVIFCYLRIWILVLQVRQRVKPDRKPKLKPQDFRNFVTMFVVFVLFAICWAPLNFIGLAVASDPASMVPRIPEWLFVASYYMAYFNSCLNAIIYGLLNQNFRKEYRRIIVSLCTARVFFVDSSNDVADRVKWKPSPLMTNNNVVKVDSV

For the compound `CCC(=O)NC[C@@H]1C[C@H]1c1cccc2c1CCO2` (relative stereo) [Tasimelteon, trans-N-[[2-(2,3-dihydrobenzofuran-4-yl)cycloprop-1yl]methyl]propanamide], the Ki (as a rule, a measure of affinity in units of concentration, obtained from inhibition or displacement) in series [1] was in the range of 0.3 to 0.4 nM; in series [2], 0.1 to 0.2 nM. Also, in series [2] (MT2R relative to MT1R), the “greater affinity for MT2R relative to MT1R” value is given as 2-4 times. In series [3] (95% ethanol, methanol, acetonitrile, ethyl acetate, isopropanol, polyethylene glycols (PEG-300 and PEG-400)), the “solubility in organic solvents” value is on record as “very soluble or freely soluble”. The “effect of pH on aqueous solubility” value in series [3] (aqueous) is given as “practically unaffected by pH”. Also, the “native pH of a saturated solution in water” value in series [3] (saturated solution in water) is recorded as 8.5. Moreover, the solubility in water entry in series [3] (water) is reported as “only slightly soluble”. The “effect on sleep parameters” value in series [4] (prior clinical studies, simulated desynchronization of the circadian clock) is “shown to improve sleep parameters”. Also, the tolerability profile entry in series [4] (studied in hundreds of individuals) was “good tolerability profile”.

Turning to `CCC(=O)NC[C@@H]1C[C@H]1c1cccc(O)c1CC(=O)O` [M9], the formation as metabolite result in series [5] is reported as “formed in humans”.

Take `CCC(=O)NC[C@@H]1C[C@H]1c1cccc(O)c1CCO` [M11]: the formation as metabolite result in series [5] is on record as “formed in humans”.
